Experiment: Forced degradation studies by TOF-MS
Assay type: physicochemical
Details: 0.5 mg/ml in potassium citrate, pH 8.1, 37° C.
Protocol: 0.5 mg/ml of PHAD was prepared in potassium citrate, pH 8.1 and stored at 37° C. pH 8.1 is outside the preferred ranges of the invention and induces degradation. Samples were prepared for analysis by the addition of 200 μL of CHCl3, 200 μL of methanol, and 100 μL of ammonium acetate in 80:20 methanol/water. After mixing the bottom layer was transferred and diluted with 100 μL of methanol. Samples were analyzed by electrospray time-of-flight (TOF) mass spectrometry (MS) in negative mode via direct infusion. […] In addition, those skilled in the art understand that various adduct ions may occur during each analysis from day to day. Therefore, molecular formulas are based upon the ions observed considering error of the system day to day. […] By Days 1, 7, 13, and 20 significant ions appear at 1309 and 1519 and continue to increase from Day 1 to Day 20. The MS ion at 1309 represents a loss of two acyl groups (molecular formula is C28H53O3; 437 Daltons) and the MS ion at 1519 represents a loss of a single acyl group (molecular formula is C14H27O2; 227 Daltons) from the diglucosamine scaffold. By Day 7, the mass intensity of the 1519 ion had increased to 46% of the mass intensity of the 1745 mass ion. On Day 0 the mass intensity of the 1519 ion was 4% of that of the 1745 mass ion.
0.5 mg/ml of 3-deacyl-phosphorylated hexaacyl disaccharide was prepared in potassium citrate, pH 8.1 and stored at 37° C. All preparation and analysis were conducted as listed in experiment 1. […] By Days 1, 13, and 22 a significant ion appeared at 1084 and continued to increase from Day 1 to Day 22. The MS ion at 1084 represents a loss of two acyl groups (molecular formula is C28H53O3; 437 Daltons) from the diglucosamine scaffold. By Day 13 the intensity of the 1084 mass ion had increased to 24% of the intensity of the 1521 mass ion. On Day 0 the intensity of the 1084 mass ion was 3% of the intensity of the 1521 mass ion. […] Phosphorylated hexaacyl disaccharide and 3-deacyl phosphorylated hexaacyl disaccharide primarily degrade by losing acyl groups. The formulations of the invention prevent the loss of these acyl groups.
Because it was both pure and abundant, the pentaacyl MLA component was chosen for examination of its degradation mechanism. […] The degradation experiment was conducted in PBS, pH 7.4 and stored at 37° C. This saline buffer system was selected because the use of saline is outside the preferred embodiments of the invention.

| Substance | mass intensity of the 1519 ion relative to the 1745 mass ion (Day 0) [%] | mass intensity of the 1519 ion relative to the 1745 mass ion (Day 7) [%] | intensity of the 1084 mass ion relative to the 1521 mass ion (Day 0) [%] | intensity of the 1084 mass ion relative to the 1521 mass ion (Day 13) [%] |
| --- | --- | --- | --- | --- |
| phosphorylated hexaacyl disaccharide [PHAD] | 4 | 46 | – | – |
| 3-deacyl-phosphorylated hexaacyl disaccharide | – | – | 3 | 24 |
